Assay results from article PMC5793061, “Functional Expression and Characterization of the Recombinant N-Acetyl-Glucosamine/N-Acetyl-Galactosamine-Specific Marine Algal Lectin BPL3” (Marine Drugs, 2018).

How the values were obtained:
Format in all cases: binding
[1] = target: T1, native BPL3 (Bryopsis plumosa, UniProt A0A1J0CRG2); experiment: inhibition of hemagglutination, human erythrocytes; conditions: PBS, 4 HU lectin, human type B erythrocytes, two-fold dilutions
T1 construct: native purification from alga by GalNAc-agarose, eluted with GlcNAc; not pure, BPL4 band seen; may consist of 2-6 domains
T1 sequence (A0A1J0CRG2 29-134): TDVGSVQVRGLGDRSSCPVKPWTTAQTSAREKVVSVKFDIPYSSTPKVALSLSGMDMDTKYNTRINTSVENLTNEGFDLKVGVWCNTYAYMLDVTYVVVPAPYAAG
Excerpt: inhibition of hemagglutination, human erythrocytes on native BPL3

[2] = target: T2, rD2BPL3 (Bryopsis plumosa, UniProt A0A1J0CRG2); experiment: inhibition of hemagglutination, human erythrocytes; conditions: PBS, 4 HU lectin, human type B erythrocytes, two-fold dilutions
T2 construct: artificial tandem repeat of two identical BPL3 domains in one chain, 4-residue linker
T2 sequence (A0A1J0CRG2 29-134): T1 sequence (A0A1J0CRG2 29-134)
Excerpt: inhibition of hemagglutination, human erythrocytes on rD2BPL3

[3] = target: T2, rD2BPL3; experiment: glycan microarray, biotinylated lectin, Cy3-streptavidin; conditions: 50 μg/mL lectin; glycan immobilised through spacer
Excerpt: glycan microarray, biotinylated lectin, Cy3-streptavidin on rD2BPL3

[4] = target: T1, native BPL3; experiment: as above; conditions: 50 μg/mL lectin; glycan immobilised through spacer
Excerpt: glycan microarray, biotinylated lectin, Cy3-streptavidin on native BPL3

| Molecule | Minimum Inhibitory Concentration / Native BPL3 [1] | Minimum Inhibitory Concentration / rD2BPL3 [2] | RFU (Normalized) / rD2BPL3 [3] | RFU (Normalized) / Native BPL3 [4] |
| --- | --- | --- | --- | --- |
| CC(=O)N[C@H]1C(O)O[C@H](CO)[C@H](O)[C@@H]1O (stereo partly drawn) [N-acetyl-D-galactosamine] | 62.5 mM | 31.25 mM |  |  |
| CC(=O)N[C@H]1C(O)O[C@H](CO)[C@@H](O)[C@@H]1O (stereo partly drawn) [N-acetyl-D-glucosamine] | 125 mM | 62.5 mM |  |  |
| D-Cellose-β-Sp1 [compound 87] |  |  | 1119 RFU |  |
| GlcNAc-β-1,2-Man-α-Sp [compound 45] |  |  | 1290 RFU |  |
| α-Fuc-Sp [compound 4] |  |  | 1313 RFU |  |
| α-Man-Sp [compound 3] |  |  | 1322 RFU | 1025 RFU |
